Assay results as given in ChEMBL document CHEMBL1143309, “Bisubstrate Inhibitors of the MYST HATs Esa1 and Tip60” (Bioorg Med Chem, 2009).

Key:
[1] = molecular target: T1, Histone acetyltransferase KAT5 (Homo sapiens, UniProt Q92993); assay: Inhibition of recombinant Tip60 (1-513) expressed in Escherichia coli BL21 (DE3) by liquid scintillation
[2] = Inhibition of His6x-tagged yeast recombinant Esa1 (105-445) expressed in Escherichia coli BL21 (DE3) by liquid scintillation; set-up: species or system Saccharomyces cerevisiae
[3] = molecular target: Histone acetyltransferase KAT2B (Homo sapiens, UniProt Q92831); assay: Inhibition of PCAF HAT domain (493-658) expressed in Escherichia coli BL21 (DE3)
Sequence of Histone acetyltransferase KAT2B (Q92831 whole entry, the tested form may be a part): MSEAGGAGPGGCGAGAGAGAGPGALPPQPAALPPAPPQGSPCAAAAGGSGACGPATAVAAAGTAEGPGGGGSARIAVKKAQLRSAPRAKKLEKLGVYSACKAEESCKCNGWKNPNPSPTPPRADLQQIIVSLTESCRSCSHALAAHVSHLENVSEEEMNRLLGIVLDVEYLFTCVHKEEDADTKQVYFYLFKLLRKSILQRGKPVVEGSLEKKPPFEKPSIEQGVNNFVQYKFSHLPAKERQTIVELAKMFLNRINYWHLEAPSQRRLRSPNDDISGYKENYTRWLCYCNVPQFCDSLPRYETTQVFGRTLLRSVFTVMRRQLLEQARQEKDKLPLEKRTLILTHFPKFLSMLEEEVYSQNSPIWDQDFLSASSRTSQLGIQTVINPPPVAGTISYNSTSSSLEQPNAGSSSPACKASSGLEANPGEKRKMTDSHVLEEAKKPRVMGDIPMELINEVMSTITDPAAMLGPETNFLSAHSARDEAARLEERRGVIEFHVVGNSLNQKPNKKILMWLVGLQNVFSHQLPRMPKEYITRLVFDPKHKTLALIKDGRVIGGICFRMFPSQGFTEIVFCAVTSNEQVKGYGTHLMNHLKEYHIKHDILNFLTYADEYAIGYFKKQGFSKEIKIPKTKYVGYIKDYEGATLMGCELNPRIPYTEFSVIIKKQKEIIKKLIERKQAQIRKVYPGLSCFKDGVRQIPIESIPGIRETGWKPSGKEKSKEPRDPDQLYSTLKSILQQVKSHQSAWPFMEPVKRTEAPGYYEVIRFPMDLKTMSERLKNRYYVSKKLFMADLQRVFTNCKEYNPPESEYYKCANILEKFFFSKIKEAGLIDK

[4] = molecular target: Histone acetyltransferase p300 (Homo sapiens, UniProt Q09472); assay: Inhibition of recombinant p300
Sequence of Histone acetyltransferase p300 (Q09472 whole entry): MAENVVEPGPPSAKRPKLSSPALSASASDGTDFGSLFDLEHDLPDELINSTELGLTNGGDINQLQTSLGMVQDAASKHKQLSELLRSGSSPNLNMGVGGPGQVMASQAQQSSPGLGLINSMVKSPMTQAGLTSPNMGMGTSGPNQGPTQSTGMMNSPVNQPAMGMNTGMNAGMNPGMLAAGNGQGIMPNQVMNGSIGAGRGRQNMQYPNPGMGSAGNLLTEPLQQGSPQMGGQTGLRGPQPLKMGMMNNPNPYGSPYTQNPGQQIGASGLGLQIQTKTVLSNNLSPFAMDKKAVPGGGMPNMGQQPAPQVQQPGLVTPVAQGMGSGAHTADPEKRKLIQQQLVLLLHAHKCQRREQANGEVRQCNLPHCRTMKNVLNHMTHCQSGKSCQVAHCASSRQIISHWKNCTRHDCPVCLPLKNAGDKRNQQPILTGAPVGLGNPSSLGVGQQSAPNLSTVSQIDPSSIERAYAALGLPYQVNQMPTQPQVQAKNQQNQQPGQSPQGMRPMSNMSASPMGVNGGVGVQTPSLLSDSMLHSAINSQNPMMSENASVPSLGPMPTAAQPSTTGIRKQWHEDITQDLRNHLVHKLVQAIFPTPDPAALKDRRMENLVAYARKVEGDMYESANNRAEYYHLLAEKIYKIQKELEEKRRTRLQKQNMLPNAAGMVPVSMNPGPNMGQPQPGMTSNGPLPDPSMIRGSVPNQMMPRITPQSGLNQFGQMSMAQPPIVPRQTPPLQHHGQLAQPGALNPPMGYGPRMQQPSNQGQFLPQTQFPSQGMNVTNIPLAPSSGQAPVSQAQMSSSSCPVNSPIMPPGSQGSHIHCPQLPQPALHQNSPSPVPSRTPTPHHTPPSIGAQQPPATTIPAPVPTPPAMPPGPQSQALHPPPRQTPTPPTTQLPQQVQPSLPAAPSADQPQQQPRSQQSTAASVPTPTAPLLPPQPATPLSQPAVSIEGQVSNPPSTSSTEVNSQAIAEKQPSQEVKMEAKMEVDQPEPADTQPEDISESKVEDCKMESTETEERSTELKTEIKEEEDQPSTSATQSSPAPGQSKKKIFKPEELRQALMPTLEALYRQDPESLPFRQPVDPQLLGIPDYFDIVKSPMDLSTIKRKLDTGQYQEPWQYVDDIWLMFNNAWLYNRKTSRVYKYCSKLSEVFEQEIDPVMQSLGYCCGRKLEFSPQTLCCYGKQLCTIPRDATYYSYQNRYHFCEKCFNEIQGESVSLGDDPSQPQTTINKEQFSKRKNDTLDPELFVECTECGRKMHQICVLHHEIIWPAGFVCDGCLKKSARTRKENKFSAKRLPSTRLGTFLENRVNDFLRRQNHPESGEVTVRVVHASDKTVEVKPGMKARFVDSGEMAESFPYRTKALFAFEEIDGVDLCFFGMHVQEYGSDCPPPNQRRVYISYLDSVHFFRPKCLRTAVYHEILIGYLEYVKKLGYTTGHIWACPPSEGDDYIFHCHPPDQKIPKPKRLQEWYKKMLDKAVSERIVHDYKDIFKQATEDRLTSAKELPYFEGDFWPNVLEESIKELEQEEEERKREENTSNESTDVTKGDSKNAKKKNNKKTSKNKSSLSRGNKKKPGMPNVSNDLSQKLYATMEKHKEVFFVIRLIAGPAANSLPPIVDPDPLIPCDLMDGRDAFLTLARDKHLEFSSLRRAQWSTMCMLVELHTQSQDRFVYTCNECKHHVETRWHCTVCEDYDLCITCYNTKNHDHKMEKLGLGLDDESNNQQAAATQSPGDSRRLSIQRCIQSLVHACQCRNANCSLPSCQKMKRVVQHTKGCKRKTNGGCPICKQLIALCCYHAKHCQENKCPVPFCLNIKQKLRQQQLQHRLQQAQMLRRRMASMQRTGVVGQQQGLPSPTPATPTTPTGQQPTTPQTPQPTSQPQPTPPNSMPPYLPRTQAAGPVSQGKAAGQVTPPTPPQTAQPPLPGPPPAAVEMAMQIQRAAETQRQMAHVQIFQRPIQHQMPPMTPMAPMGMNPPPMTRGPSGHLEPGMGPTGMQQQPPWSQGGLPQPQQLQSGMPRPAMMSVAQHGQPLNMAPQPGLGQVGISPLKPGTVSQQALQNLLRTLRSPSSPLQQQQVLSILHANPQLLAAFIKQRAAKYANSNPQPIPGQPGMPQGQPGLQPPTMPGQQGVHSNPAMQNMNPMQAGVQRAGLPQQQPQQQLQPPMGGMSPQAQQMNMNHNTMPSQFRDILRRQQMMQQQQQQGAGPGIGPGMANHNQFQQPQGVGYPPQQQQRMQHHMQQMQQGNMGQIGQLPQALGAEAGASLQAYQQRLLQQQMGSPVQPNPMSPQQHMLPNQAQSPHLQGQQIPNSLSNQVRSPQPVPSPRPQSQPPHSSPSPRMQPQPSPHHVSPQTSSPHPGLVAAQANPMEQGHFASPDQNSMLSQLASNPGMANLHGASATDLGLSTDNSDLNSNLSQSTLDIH

[5] = molecular target: T1, Histone acetyltransferase KAT5; assay: Inhibition of TIP60 in human HeLa cell extracts by ELISA

T1 sequence (Q92993 whole entry): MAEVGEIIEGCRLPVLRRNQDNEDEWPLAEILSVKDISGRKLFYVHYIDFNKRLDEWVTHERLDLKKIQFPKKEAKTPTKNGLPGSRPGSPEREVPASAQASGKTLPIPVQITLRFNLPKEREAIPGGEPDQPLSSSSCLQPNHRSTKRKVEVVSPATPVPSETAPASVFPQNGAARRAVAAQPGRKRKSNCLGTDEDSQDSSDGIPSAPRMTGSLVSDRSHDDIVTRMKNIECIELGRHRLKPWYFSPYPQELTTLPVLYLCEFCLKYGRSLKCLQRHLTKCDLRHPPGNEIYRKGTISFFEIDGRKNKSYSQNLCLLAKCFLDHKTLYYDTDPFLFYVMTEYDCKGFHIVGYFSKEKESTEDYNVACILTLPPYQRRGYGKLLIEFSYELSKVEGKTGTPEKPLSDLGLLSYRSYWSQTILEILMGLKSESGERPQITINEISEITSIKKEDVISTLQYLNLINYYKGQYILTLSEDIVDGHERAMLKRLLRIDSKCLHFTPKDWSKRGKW

SMILES: COc1cc(/C=C/C(=O)CC(=O)/C=C/c2ccc(O)c(OC)c2)ccc1O [CURCUMIN]
- IC50 [1]: > 200 µM
- IC50 [2]: > 150 µM

SMILES: CC(C)(COP(=O)(O)OP(=O)(O)OC[C@H]1O[C@@H](n2cnc3c(N)ncnc32)[C@H](O)[C@@H]1OP(=O)(O)O)[C@@H](O)C(=O)NCCC(=O)NCCS [COENZYME_A]
- IC50 [1]: 82.3 µM
- IC50 [2]: 68.6 µM
- IC50 [3]: 41.9 µM
- IC50 [4]: 45.9 µM

SMILES: CC(=O)N[C@@H](CCCCNC(=O)CSCCNC(=O)CCNC(=O)[C@H](O)C(C)(C)COP(=O)(O)OP(=O)(O)OC[C@H]1O[C@@H](n2cnc3c(N)ncnc32)[C@H](O)[C@@H]1OP(=O)(O)O)C(N)=O
- IC50 [1]: 29.8 µM
- IC50 [2]: 7 µM
- IC50 [3]: 108 µM
- IC50 [4]: 0.98 µM

SMILES: C=CC/C=C\C/C=C\CCCCCCCc1cccc(O)c1C(=O)O [ANACARDIC ACID]
- IC50 [1]: 375 µM
- IC50 [2]: 297 µM
- IC50 [3]: 667 µM
- IC50 [4]: > 1000 µM
- IC50 [5]: 9 µM
